The values that follow come from patent publication US10526314B2, “Hydroxyalkyl-substituted heteroaryltriazole derivatives and uses thereof” (BAYER AKTIENGESELLSCHAFT, priority 2016, dated 2020).

One experiment deals with T1, human V1a receptor (Homo sapiens, UniProt P37288).
T1 construct: expressed in transfected cells; host or cells: CHO K1 (ATCC), also stably transfected with a modified aequorin
Briefly: Cellular in vitro assay for determining vasopressin receptor activity (V1a, aequorin luminescence). Particulars: for IC50: CHO cell line transfected with human V1a receptor, [Arg8]-vasopressin at EC50 concentration, read-out: IC50 hV1a; for ratio IC50 hV2/hV1a: selectivity ratio IC50 hV2 / IC50 hV1a. The class given is cell-based. The protocol:
(§1) B-1. Cellular In Vitro Assay for Determining Vasopressin Receptor Activity
(§2) The identification of agonists and antagonists of the V1a and V2 vasopressin receptors from humans, rats and dogs as well as the quantification of the activity of the compounds of the invention is carried out using recombinant cell lines. These cell lines originally derive from a hamster's ovary epithelial cell (Chinese Hamster Ovary, CHO K1, ATCC: American Type Culture Collection, Manassas, Va. 20108, USA). The test cell lines constitutively express the human, rat or dog V1a or V2 receptors. In case of the Gαq-coupled V1a receptors, cells are also stably transfected with a modified form of the calcium-sensitive photoproteins aequorin (human and rat V1a) or obelin (dog V1a), which, after reconstitution with the cofactor coelenterazine, emit light when there are increases in free calcium concentrations [Rizzuto R, Simpson A W, Brini M, Pozzan T, Nature 358, 325-327 (1992); Illarionov B A, Bondar V S, Illarionova V A, Vysotski E S, Gene 153 (2), 273-274 (1995)]. The resulting vasopressin receptor cells react to stimulation of the recombinantly expressed V1a receptors by intracellular release of calcium ions, which can be quantified by the resulting photoprotein luminescence. The Gs-coupled V2 receptors are stably transfected into cell lines expressing the gene for firefly luciferase under control of a CRE-responsible promoter. Activation of V2 receptors induces the activation of the CRE-responsive promoter via cAMP increase, thereby inducing the expression of firefly luciferase. The light emitted by photoproteins of V1a cell lines as well as the light emitted by firefly luciferase of V2 cell lines corresponds to the activation or inhibition of the respective vasopressin receptor. The bioluminescence of the cell lines is detected using a suitable luminometer [Milligan G, Marshall F, Rees S, Trends in Pharmacological Sciences 17, 235-237 (1996)].
Vasopressin V1a Receptor Cell Lines:
On the day before the assay, the cells are plated out in culture medium (DMEM/F12, 2% FCS, 2 mM glutamine, 10 mM HEPES, 5 μg/ml coelenterazine) in 384-well microtiter plates and kept in a cell incubator (96% humidity, 5% v/v CO2, 37° C.). On the day of the assay, test compounds in various concentrations are placed for 10 minutes in the wells of the microtiter plate before the agonist [Arg^8]-vasopressin at EC50 concentration is added. The resulting light signal is measured immediately in a luminometer.
(§3) Table 1A below lists individual IC50 values for the compounds of the invention (including racemic mixtures as well as separated enantiomers) that were obtained from cell lines transfected with the human V1a or V2 receptor: […]

In a further experiment the target is T2, human V2 receptor (Homo sapiens, UniProt P30518).
T2 construct: expressed in transfected cells; host or cells: CHO K1 (ATCC) expressing firefly luciferase under a CRE-responsive promoter
In words: Cellular in vitro assay for determining vasopressin receptor activity (V2, CRE-luciferase). Particulars: CHO cell line transfected with human V2 receptor; [Arg8]-vasopressin at EC50 concentration; read-out: IC50 hV2. The class given is cell-based. The method, then:
as §1, §2
Vasopressin V2 Receptor Cell Lines:
On the day before the assay, the cells are plated out in culture medium (DMEM/F12, 2% FCS, 2 mM glutamine, 10 mM HEPES) in 384-well microtiter plates and kept in a cell incubator (96% humidity, 5% v/v CO2, 37° C.). On the day of the assay, test compounds in various concentrations and the agonist [Arg^8]-vasopressin at EC50 concentration are added together to the wells, and plates are incubated for 3 hours in a cell incubator. Upon addition of the cell lysis reagent Triton™ and the substrate luciferin, luminescence of firefly luciferase is measured in a luminometer.
as §3

T1 sequence (P37288 whole entry): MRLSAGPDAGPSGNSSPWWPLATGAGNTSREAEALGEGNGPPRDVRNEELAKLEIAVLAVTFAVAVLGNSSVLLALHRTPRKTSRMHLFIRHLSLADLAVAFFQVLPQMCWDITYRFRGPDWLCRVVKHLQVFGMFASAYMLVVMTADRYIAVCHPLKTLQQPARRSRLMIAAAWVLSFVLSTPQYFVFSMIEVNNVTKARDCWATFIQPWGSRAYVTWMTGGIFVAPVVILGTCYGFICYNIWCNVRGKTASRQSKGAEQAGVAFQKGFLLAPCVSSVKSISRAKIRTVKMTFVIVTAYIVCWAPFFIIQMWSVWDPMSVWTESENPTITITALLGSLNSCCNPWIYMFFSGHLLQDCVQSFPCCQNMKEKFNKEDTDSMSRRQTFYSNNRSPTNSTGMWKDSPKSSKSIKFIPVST
T2 sequence (P30518 whole entry): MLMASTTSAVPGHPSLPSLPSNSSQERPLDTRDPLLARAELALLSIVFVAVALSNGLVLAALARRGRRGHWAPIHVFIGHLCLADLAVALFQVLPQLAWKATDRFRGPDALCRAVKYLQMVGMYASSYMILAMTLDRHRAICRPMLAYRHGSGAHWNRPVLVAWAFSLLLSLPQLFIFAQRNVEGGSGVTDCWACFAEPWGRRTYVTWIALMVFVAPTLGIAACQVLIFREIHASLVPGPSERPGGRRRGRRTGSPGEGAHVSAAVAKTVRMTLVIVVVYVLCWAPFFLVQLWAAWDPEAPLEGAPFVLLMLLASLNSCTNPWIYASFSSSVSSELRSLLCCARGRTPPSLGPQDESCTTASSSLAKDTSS

The term IC50 denotes the concentration that gives 50% inhibition. As for `C[C@H](O)c1nc(Cn2nc(-c3ccc(Cl)cc3)n(C[C@H](O)C(F)(F)F)c2=O)nn1-c1cccnn1` [Example 20, 5-(4-Chlorophenyl)-2-({5-[(1S)-1-hydroxyethyl]-1-(pyridazin-3-yl)-1H-1,2,4-triazol-3-yl}methyl)-4-[(25)-3,3,3-trifluoro-2-hydroxypropyl]-2,4-dihydro-3H-1,2,4-triazol-3-one], at human V1a receptor, the IC50 was found to be 47.6 nM and the “ratio IC50 hV2/hV1a” value is recorded as 4.9. At human V2 receptor, the 50% inhibitory concentration (IC50) was determined as 235 nM.

For `C[C@H](O)c1nc(Cn2nc(-c3ccc(Cl)cc3)n(C[C@H](O)C(F)(F)F)c2=O)nn1-c1cccc(F)n1` [Example 17, 5-(4-Chlorophenyl)-2-({1-(6-fluoropyridin-2-yl)-5-[(1S)-1-hydroxyethyl]-1H-1,2,4-triazol-3-yl}methyl)-4-[(2S)-3,3,3-trifluoro-2-hydroxypropyl]-2,4-dihydro-3H-1,2,4-triazol-3-one], the IC50 at human V1a receptor amounted to 14.5 nM; on human V2 receptor, 39.5 nM. Besides, the “ratio IC50 hV2/hV1a” value on human V1a receptor came out at 2.7.

Take `C[C@H](O)c1nc(Cn2nc(-c3ccc(Cl)cc3)n(C[C@H](O)C(F)(F)F)c2=O)nn1-c1cnccn1` [Example 19, 5-(4-Chlorophenyl)-2-({5-[(1S)-1-hydroxyethyl]-1-(pyrazin-2-yl)-1H-1,2,4-triazol-3-yl}methyl)-4-[(2S)-3,3,3-trifluoro-2-hydroxypropyl]-2,4-dihydro-3H-1,2,4-triazol-3-one]: the IC50 at human V1a receptor came out at 29.5 nM; on human V2 receptor, 320 nM. Besides, the “ratio IC50 hV2/hV1a” value at human V1a receptor amounted to 10.8.

As to `C[C@@H](O)c1nc(Cn2nc(-c3ccc(Cl)cc3)n(C[C@H](O)C(F)(F)F)c2=O)nn1-c1ncccc1F` [Example 13, 5-(4-Chlorophenyl)-2-({1-(3-fluoropyridin-2-yl)-5-[(1R)-1-hydroxyethyl]-1H-1,2,4-triazol-3-yl}methyl)-4-[(2S)-3,3,3-trifluoro-2-hydroxypropyl]-2,4-dihydro-3H-1,2,4-triazol-3-one], at human V1a receptor, the IC50 stood at 6.05 nM and the “ratio IC50 hV2/hV1a” value is 6.4. Further, the IC50 at human V2 receptor was 38.7 nM.

As for `C[C@H](O)c1nc(Cn2nc(-c3ccc(Cl)cc3)n(C[C@H](O)C(F)(F)F)c2=O)nn1-c1ncccc1OC(F)(F)F` [Example 12, 5-(4-Chlorophenyl)-2-({5-[(1S)-1-hydroxyethyl]-1-[3-(trifluoromethoxy)pyridin-2-yl]-1H-1,2,4-triazol-3-yl}methyl)-4-[(2S)-3,3,3-trifluoro-2-hydroxypropyl]-2,4-dihydro-3H-1,2,4-triazol-3-one], on human V1a receptor, the IC50 was determined as 5.7 nM and the “ratio IC50 hV2/hV1a” value was determined as 11.3. Further, the IC50 on human V2 receptor was 64.7 nM.

Take `C[C@H](O)c1nc(Cn2nc(-c3ccc(Cl)cc3)n(C[C@H](O)C(F)(F)F)c2=O)nn1-c1ncccc1C(F)(F)F` [Example 30, 5-(4-chlorophenyl)-2-({5-[(1S)-1-hydroxyethyl]-1-[3-(trifluoromethyl)pyridin-2-yl]-1H-1,2,4-triazol-3-yl}methyl)-4-[(2S)-3,3,3-trifluoro-2-hydroxypropyl]-2,4-dihydro-3H-1,2,4-triazol-3-one]: at human V1a receptor, the IC50 is 3.3 nM and the “ratio IC50 hV2/hV1a” value turned out to be 14.9. In addition, on human V2 receptor, the IC50 was 48.5 nM.

In the case of `C[C@H](O)c1nc(Cn2nc(-c3ccc(Cl)cc3)n(C[C@H](O)C(F)(F)F)c2=O)nn1-c1ccc(Cl)cn1` [Example 15, 5-(4-Chlorophenyl)-2-({1-(5-chloropyridin-2-yl)-5-[(1S)-1-hydroxyethyl]-1H-1,2,4-triazol-3-yl}methyl)-4-[(2S)-3,3,3-trifluoro-2-hydroxypropyl]-2,4-dihydro-3H-1,2,4-triazol-3-one], at human V1a receptor, the IC50 stood at 8.25 nM and the “ratio IC50 hV2/hV1a” value stood at 1.4. Also, the IC50 on human V2 receptor was found to be 11.7 nM.

As to `C[C@H](O)c1nc(Cn2nc(-c3ccc(Cl)cc3)n(C[C@H](O)C(F)(F)F)c2=O)nn1-c1ccncc1` [Example 18, 5-(4-Chlorophenyl)-2-({5-[(1S)-1-hydroxyethyl]-1-(pyridin-4-yl)-1H-1,2,4-triazol-3-yl}methyl)-4-[(2S)-3,3,3-trifluoro-2-hydroxypropyl]-2,4-dihydro-3H-1,2,4-triazol-3-one], at human V1a receptor, the IC50 amounted to 28.6 nM and the “ratio IC50 hV2/hV1a” value was 7.0. For the same compound, the IC50 on human V2 receptor was 199 nM.

As to `C[C@@H](O)c1nc(Cn2nc(-c3ccc(Cl)cc3)n(C[C@H](O)C(F)(F)F)c2=O)nn1-c1ncccc1C(F)(F)F` [Example 31, 5-(4-chlorophenyl)-2-({5-[(1R)-1-hydroxyethyl]-1-[3-(trifluoromethyl)pyridin-2-yl]-1H-1,2,4-triazol-3yl}methyl)-4-[(2S)-3,3,3-trifluoro-2-hydroxypropyl]-2,4-dihydro-3H-1,2,4-triazol-3-one], at human V1a receptor, the IC50 turned out to be 4.9 nM and the “ratio IC50 hV2/hV1a” value amounted to 35.1. Moreover, on human V2 receptor, the IC50 stood at 170 nM.

`CC(O)c1nc(Cn2nc(-c3ccc(Cl)cc3)n(C[C@H](O)C(F)(F)F)c2=O)nn1-c1cncc(Cl)c1` (mixture of isomers) [Example 27, 5-(4-Chlorophenyl)-2-({1-(5-chloropyridin-3-yl)-5-(1hydroxyethyl)-1H-1,2,4triazol-3-yl}methyl)-4-[(2S)-3,3,3-trifluoro-2-hydroxypropyl]-2,4-dihydro-3H-1,2,4-triazol-3-one]: the half-inhibitory concentration (IC50) at human V1a receptor worked out at 12.3 nM; at human V2 receptor it was 18.7 nM. Further, the “ratio IC50 hV2/hV1a” value at human V1a receptor was determined as 1.5.

As to `CC(O)c1nc(Cn2nc(-c3ccc(Cl)cc3)n(C[C@H](O)C(F)(F)F)c2=O)nn1-c1cccnc1` (single isomer, unassigned) [Example 26], the IC50 worked out at 34.3 nM on human V1a receptor and 325 nM on human V2 receptor. Further, the “ratio IC50 hV2/hV1a” value at human V1a receptor amounted to 9.5.

As to `C[C@@H](O)c1nc(Cn2nc(-c3ccc(Cl)cc3)n(C[C@H](O)C(F)(F)F)c2=O)nn1-c1c(Cl)cncc1Cl` [Example 4, 5-(4-Chlorophenyl)-2-({1-(3,5-dichloropyridin-4-yl)-5-[(1R)-1-hydroxyethyl]-1H-1,2,4-triazol-3-yl}methyl)-4-[(2S)-3,3,3-trifluoro-2-hydroxypropyl]-2,4-dihydro-3H-1,2,4-triazol-3-one], at human V1a receptor, the IC50 turned out to be 1.3 nM and the “ratio IC50 hV2/hV1a” value was 6.7. Also, the IC50 on human V2 receptor is 8.65 nM.

`COc1cccnc1-n1nc(Cn2nc(-c3ccc(Cl)cc3)n(C[C@H](O)C(F)(F)F)c2=O)nc1[C@H](C)O` [Example 8, 5-(4-Chlorophenyl)-2-({5-[(1S)-1-hydroxyethyl]-1-(3-methoxypyridin-2-yl)-1H-1,2,4-triazol-3-yl}methyl)-4-[(2S)-3,3,3-trifluoro-2-hydroxypropyl]-2,4-dihydro-3H-1,2,4-triazol-3-one]: on human V1a receptor, the IC50 was determined as 3.65 nM and the “ratio IC50 hV2/hV1a” value is listed as 2.6. Moreover, the IC50 at human V2 receptor came out at 9.4 nM.

On to `CC(O)c1nc(Cn2nc(-c3ccc(Cl)cc3)n(C[C@H](O)C(F)(F)F)c2=O)nn1-c1cncc(Cl)c1` (single isomer, unassigned) [Example 29], for which the figures for the IC50 at human V1a receptor and at human V2 receptor were 7.71 nM and 15.2 nM, respectively. In addition, the “ratio IC50 hV2/hV1a” value at human V1a receptor was 2.0.

In the case of `C[C@@H](O)c1nc(Cn2nc(-c3ccc(Cl)cc3)n(C[C@H](O)C(F)(F)F)c2=O)nn1-c1ccccn1` [Example 23, 5-(4-Chlorophenyl)-2-({5-[(1R)-1-hydroxyethyl]-1-(pyridin-2-yl)-1H-1,2,4-triazol-3-yl}methyl)-4-[(2S)-3,3,3-trifluoro-2-hydroxypropyl]-2,4-dihydro-3H-1,2,4-triazol-3-one], at human V1a receptor, the IC50 was determined as 86.5 nM and the “ratio IC50 hV2/hV1a” value is recorded as 1.2. Also, the IC50 at human V2 receptor worked out at 103 nM.
